In ChEMBL document CHEMBL4368926, “Arylpyridines, arylpyrimidines and related compounds as potential modulator agents of the VEGF, hTERT and c-Myc oncogenes” (Bioorg Med Chem, 2019):

Columns and labels:
[1] = Selectivity index, ratio of IC50 for HEK293 cells to IC50 for human HT-29 cells; type: toxicity; details: HEK293 cells versus HT-29 cells, read-out: Ratio IC50
[2] = tested on: MCF7; assay: Cytotoxicity against human MCF7 cells assessed as decrease in cell viability after 2 days by MTT assay; type: functional, cell-based; details: MCF7, 48 h
[3] = tested on: HT-29; assay: Down-regulation of VEGFA protein expression in human HT-29 cells assessed as VEGFA protein level at 40 uM after 48 hrs by ELISA (reference value: 100%); type: functional
[4] = tested on: HT-29; assay: Down-regulation of c-Myc protein expression in human HT-29 cells assessed as c-Myc protein level at 40 uM after 48 hrs by ELISA (reference value: 100%); type: functional
[5] = tested on: HT-29; assay: Down-regulation of VEGFRA mRNA expression in human HT-29 cells assessed as VEGFRA mRNA level at 20 uM after 48 hrs by RT-qPCR analysis (reference value: 100%); type: functional
[6] = tested on: HEK293; assay: Cytotoxicity against HEK293 cells assessed as decrease in cell viability after 2 days by MTT assay; type: ADME, cell-based; details: Homo sapiens, HEK293, 48 h
[7] = tested on: HT-29; assay: Cytotoxicity against human HT-29 cells assessed as decrease in cell viability after 2 days by MTT assay; type: functional, cell-based; details: HT-29, 48 h
[8] = tested on: HT-29; assay: Down-regulation of hTERT mRNA expression in human HT-29 cells assessed as hTERT mRNA level at 40 uM after 48 hrs by RT-qPCR analysis (reference value: 100%); type: functional
[9] = tested on: HT-29; assay: Down-regulation of c-Myc mRNA expression in human HT-29 cells assessed as c-Myc mRNA level at 40 uM after 48 hrs by RT-qPCR analysis (reference value: 100%); type: functional
[10] = Selectivity index, ratio of IC50 for HEK293 cells to IC50 for human MCF7 cells; details: HEK293 cells versus MCF7 cells
[11] = tested on: HT-29; assay: Down-regulation of VEGFA protein expression in human HT-29 cells assessed as VEGFA protein level at 100 uM after 48 hrs by ELISA (reference value: 100%); type: functional
[12] = tested on: HT-29; assay: Down-regulation of VEGFRA mRNA expression in human HT-29 cells assessed as VEGFRA mRNA level at 100 uM after 48 hrs by RT-qPCR analysis (reference value: 100%); type: functional
[13] = tested on: HT-29; assay: Down-regulation of c-Myc protein expression in human HT-29 cells assessed as c-Myc protein level at 100 uM after 48 hrs by ELISA (reference value: 100%); type: functional
[14] = tested on: HT-29; assay: Down-regulation of c-Myc mRNA expression in human HT-29 cells assessed as c-Myc mRNA level at 100 uM after 48 hrs by RT-qPCR analysis (reference value: 100%); type: functional
[15] = tested on: HT-29; assay: Down-regulation of hTERT mRNA expression in human HT-29 cells assessed as hTERT mRNA level at 100 uM after 48 hrs by RT-qPCR analysis (reference value: 100%); type: functional
[16] = tested on: HT-29; assay: Down-regulation of VEGFA protein expression in human HT-29 cells assessed as VEGFA protein level at 145 uM after 48 hrs by ELISA (reference value: 100%); type: functional
[17] = tested on: HT-29; assay: Down-regulation of c-Myc mRNA expression in human HT-29 cells assessed as c-Myc mRNA level at 145 uM after 48 hrs by RT-qPCR analysis (reference value: 100%); type: functional
[18] = tested on: HT-29; assay: Down-regulation of hTERT mRNA expression in human HT-29 cells assessed as hTERT mRNA level at 145 uM after 48 hrs by RT-qPCR analysis (reference value: 100%); type: functional
[19] = tested on: HT-29; assay: Down-regulation of VEGFRA mRNA expression in human HT-29 cells assessed as VEGFRA mRNA level at 145 uM after 48 hrs by RT-qPCR analysis (reference value: 100%); type: functional
[20] = tested on: HT-29; assay: Down-regulation of c-Myc protein expression in human HT-29 cells assessed as c-Myc protein level at 145 uM after 48 hrs by ELISA (reference value: 100%); type: functional
[21] = tested on: HT-29; assay: Down-regulation of hTERT mRNA expression in human HT-29 cells assessed as hTERT mRNA level at 160 uM after 48 hrs by RT-qPCR analysis (reference value: 100%); type: functional
[22] = tested on: HT-29; assay: Down-regulation of VEGFRA mRNA expression in human HT-29 cells assessed as VEGFRA mRNA level at 160 uM after 48 hrs by RT-qPCR analysis (reference value: 100%); type: functional
[23] = tested on: HT-29; assay: Down-regulation of c-Myc mRNA expression in human HT-29 cells assessed as c-Myc mRNA level at 160 uM after 48 hrs by RT-qPCR analysis (reference value: 100%); type: functional
[24] = tested on: HT-29; assay: Down-regulation of VEGFA protein expression in human HT-29 cells assessed as VEGFA protein level at 160 uM after 48 hrs by ELISA (reference value: 100%); type: functional
[25] = tested on: HT-29; assay: Down-regulation of c-Myc protein expression in human HT-29 cells assessed as c-Myc protein level at 160 uM after 48 hrs by ELISA (reference value: 100%); type: functional
[26] = tested on: HT-29; assay: Down-regulation of hTERT mRNA expression in human HT-29 cells assessed as hTERT mRNA level at 80 uM after 48 hrs by RT-qPCR analysis (reference value: 100%); type: functional
[27] = tested on: HT-29; assay: Down-regulation of c-Myc mRNA expression in human HT-29 cells assessed as c-Myc mRNA level at 80 uM after 48 hrs by RT-qPCR analysis (reference value: 100%); type: functional
[28] = tested on: HT-29; assay: Down-regulation of c-Myc protein expression in human HT-29 cells assessed as c-Myc protein level at 80 uM after 48 hrs by ELISA (reference value: 100%); type: functional
[29] = tested on: HT-29; assay: Down-regulation of VEGFRA mRNA expression in human HT-29 cells assessed as VEGFRA mRNA level at 80 uM after 48 hrs by RT-qPCR analysis (reference value: 100%); type: functional
[30] = tested on: HT-29; assay: Down-regulation of VEGFA protein expression in human HT-29 cells assessed as VEGFA protein level at 80 uM after 48 hrs by ELISA (reference value: 100%); type: functional
[31] = tested on: HT-29; assay: Down-regulation of VEGFRA mRNA expression in human HT-29 cells assessed as VEGFRA mRNA level at 40 uM after 48 hrs by RT-qPCR analysis (reference value: 100%); type: functional
[32] = tested on: HT-29; assay: Down-regulation of hTERT mRNA expression in human HT-29 cells assessed as hTERT mRNA level at 20 uM after 48 hrs by RT-qPCR analysis (reference value: 100%); type: functional
[33] = tested on: HT-29; assay: Down-regulation of c-Myc protein expression in human HT-29 cells assessed as c-Myc protein level at 20 uM after 48 hrs by ELISA (reference value: 100%); type: functional
[34] = tested on: HT-29; assay: Down-regulation of VEGFA protein expression in human HT-29 cells assessed as VEGFA protein level at 20 uM after 48 hrs by ELISA (reference value: 100%); type: functional
[35] = tested on: HT-29; assay: Down-regulation of c-Myc mRNA expression in human HT-29 cells assessed as c-Myc mRNA level at 20 uM after 48 hrs by RT-qPCR analysis (reference value: 100%); type: functional
[36] = tested on: HT-29; assay: Down-regulation of VEGFRA mRNA expression in human HT-29 cells assessed as VEGFRA mRNA level at 240 uM after 48 hrs by RT-qPCR analysis (reference value: 100%); type: functional
[37] = tested on: HT-29; assay: Down-regulation of c-Myc mRNA expression in human HT-29 cells assessed as c-Myc mRNA level at 240 uM after 48 hrs by RT-qPCR analysis (reference value: 100%); type: functional
[38] = tested on: HT-29; assay: Down-regulation of hTERT mRNA expression in human HT-29 cells assessed as hTERT mRNA level at 240 uM after 48 hrs by RT-qPCR analysis (reference value: 100%); type: functional
[39] = tested on: HT-29; assay: Down-regulation of c-Myc protein expression in human HT-29 cells assessed as c-Myc protein level at 240 uM after 48 hrs by ELISA (reference value: 100%); type: functional
[40] = tested on: HT-29; assay: Down-regulation of VEGFA protein expression in human HT-29 cells assessed as VEGFA protein level at 240 uM after 48 hrs by ELISA (reference value: 100%); type: functional

Row | Compound | selectivity ratio [1] | IC50 [2] | IC50 [6] | IC50 [7] | selectivity ratio [10] | further results
1 | COc1ccc(-c2ccccn2)cc1OC | 3 | 210 µM | 170 µM | 56 µM | < 1 | Activity [3]: 48%; Activity [4]: 100%; Activity [5]: 8%; Activity [8]: 20%; Activity [9]: 38%
2 | COc1ccc(N2CCCC2)cc1 | 3 | > 400 µM | 350 µM | 210 µM | 5 | Activity [11]: 79%; Activity [12]: 55%; Activity [13]: 100%; Activity [14]: 79%; Activity [15]: 35%
3 | COc1ccc(-c2cncnc2)c(OC)c1 | – | > 400 µM | > 400 µM | > 400 µM | – | –
4 | COc1ccc(N2CCCCC2)cc1 | – | 71 µM | 100 µM | 120 µM | 2 | –
5 | Oc1ccccc1-c1cccnc1 | 2 | 41 µM | 294 µM | 115 µM | 7 | Activity [16]: 96%; Activity [17]: 39%; Activity [18]: 44%; Activity [19]: 18%; Activity [20]: 100%
6 | c1ccc(N2CCOCC2)cc1 | 3 | 120 µM | > 400 µM | 240 µM | 5 | Activity [21]: 57%; Activity [22]: 79%; Activity [23]: 67%; Activity [24]: 79%; Activity [25]: 95%
7 | c1ccc(N2CCCCC2)cc1 | 5 | 157 µM | > 400 µM | 120 µM | 4 | Activity [26]: 41%; Activity [27]: 52%; Activity [28]: 95%; Activity [29]: 89%; Activity [30]: 75%
8 | COc1ccc(-c2cccnc2)cc1OC | – | 223 µM | > 400 µM | > 400 µM | > 2 | –
9 | COc1cccc(N2CCCC2)c1 | 3 | 51 µM | 210 µM | 310 µM | 3 | –
10 | Oc1ccccc1-c1cncnc1 | < 1 | 61 µM | 90 µM | 380 µM | 2 | –
11 | COc1ccc(-c2cccnc2)c(OC)c1 | 2 | 210 µM | 100 µM | 59 µM | < 1 | Activity [31]: 32%; Activity [3]: 52%; Activity [4]: 56%; Activity [8]: 28%; Activity [9]: 39%
12 | Oc1ccccc1-c1ccccn1 | 2 | 7 µM | 390 µM | 197 µM | 57 | Activity [11]: 65%; Activity [12]: 31%; Activity [13]: 62%; Activity [14]: 17%; Activity [15]: 36%
13 | COc1ccc(N2CCOCC2)cc1 | 3 | 73 µM | > 400 µM | 180 µM | 7 | Activity [21]: 63%; Activity [22]: 66%; Activity [23]: 96%; Activity [24]: 64%; Activity [25]: 100%
14 | COc1ccc(-c2ncccn2)cc1OC | – | 48 µM | > 400 µM | > 400 µM | > 9 | –
15 | COc1cccc(N2CCOCC2)c1 | 3 | 100 µM | > 400 µM | 160 µM | 5 | Activity [21]: 72%; Activity [22]: 54%; Activity [23]: 62%; Activity [24]: 50%; Activity [25]: 100%
16 | COc1ccc(-c2ccccn2)c(OC)c1 | < 1 | > 400 µM | 234 µM | > 400 µM | < 1 | –
17 | COc1ccc(-c2ncccn2)c(OC)c1 | < 1 | 130 µM | 20 µM | 30 µM | < 1 | Activity [32]: 85%; Activity [33]: 63%; Activity [5]: 33%; Activity [34]: 48%; Activity [35]: 18%
18 | c1ccc(N2CCCC2)cc1 | – | > 400 µM | > 400 µM | > 400 µM | – | –
19 | c1ccc(-c2cccnc2)cc1 | < 1 | > 400 µM | 321 µM | > 400 µM | < 1 | Activity [36]: 34%; Activity [37]: 35%; Activity [38]: 56%; Activity [39]: 60%; Activity [40]: 42%
20 | Oc1ccccc1-c1ncccn1 | – | 41 µM | > 400 µM | > 400 µM | 14 | –
21 | C=CCc1ccc(O)c(-c2ccc(O)c(CC=C)c2)c1 [HONOKIOL] | 2 | 35 µM | 40 µM | 25 µM | 2 | Activity [32]: 45%; Activity [33]: 53%; Activity [5]: 36%; Activity [34]: 55%; Activity [35]: 45%
22 | c1ccc(-c2cncnc2)cc1 | – | 7 µM | > 400 µM | > 400 µM | > 50 | –
23 | COc1ccc(-c2cncnc2)cc1OC | – | 200 µM | > 400 µM | > 400 µM | 2 | –
